Source: patent publication US7691833B2, “Compositions and methods for preventing sporadic neoplasia in colon” (Trustees of Dartmouth College, priority 2002, dated 2010)

Legend:
[1] = Serious medical events in the randomized, placebo-controlled aspirin study; details: for Serious Bleeding, Gastrointestinal, no of subjects / Serious Bleeding, Genitourinary, no of subjects: bleeding leading to hospitalization or surgical intervention
Description: A multi-center, randomized, double-blind, placebo-controlled study was performed that examined the effects of aspirin alone as well as folate treatment combined with aspirin on the occurrence of large bowel adenomas. The study has a 3-by-2 factorial design, investigating aspirin (placebo, 81 mg/day, or 325 mg/day) and folic acid (placebo or 1 mg/day). Patients were recruited at nine centers in North America. Eligible subjects had at least one of the following: (1) one or more histologically confirmed large-bowel adenomas removed within 3 months prior to recruitment, (2) one or more histologically confirmed large-bowel adenomas removed within 16 months before recruitment and a lifetime history of 2 or more confirmed large-bowel adenomas, or (3) a histologically confirmed large-bowel adenoma at least 1 cm in diameter removed within 16 months before recruitment. […] Eligible subjects were between 21 and 80 years old, in good health, and with anticipated colonoscopic follow-up three years after the qualifying examination. Exclusion criteria included a history of a familial colorectal cancer syndrome, invasive large-bowel cancer, malabsorption syndromes, any condition potentially worsened by supplemental aspirin or folic acid, or any condition commonly treated with aspirin, non-steroidal anti-inflammatory drugs (NSAIDs), or folate (e.g., recurrent arthritis, atherosclerotic vascular disease, folic acid deficiency).
Study coordinators at each center maintained contact with the subjects on a regular basis; interval questionnaires regarding possible side effects and medical events were completed every four months by each subject.
Subjects were regularly counseled regarding avoidance of aspirin and other NSATDs. Lists of products containing aspirin, ibuprofen, or naproxen were provided, and acetaminophen was distributed for treatment of minor febrile illnesses and pain. Every four months, subjects received questionnaires regarding adherence to study treatment; use of medications, over-the-counter drugs and nutritional supplements; and occurrence of symptoms, illnesses, and hospitalizations.
The statistical analysis compared the aspirin treatment groups irrespective of folic acid treatment. Subjects who underwent a follow-up endoscopy at least one year following randomization were included in the analyses. The predefined primary statistical analysis was a 2 degree-of-freedom chi-squared test for a contingency table comparing treatment groups regarding risk of one or more new adenomas. Crude risk ratios and 95 percent confidence intervals were used to compare treatment groups to placebo. Adjusted risk ratios were obtained from log-linear models with age, gender, clinical center, number of lifetime adenomas, and duration of follow-up as covariates. […] Possible modification of treatment effects by baseline characteristics was assessed using interaction terms in the log-linear model. Counts of other clinical endpoints were compared using Fisher's exact test. To compare the effect of aspirin on different types of polyps, a logistic regression model was used with generalized estimating equations (Liang and Zeger Biometrika 1986:13-22) to account for the clustering of multiple endpoints within patients. […] Two-sided P-values <0.05 were considered statistically significant.

large bowel adenomas = assay: Randomized, double-blind, placebo-controlled study of aspirin on occurrence of large bowel adenomas; type: in vivo, humans; details: for Relative Crude Risk (95% CI) / Adjusted Relative Risk (95% CI): versus placebo
Description: Patients were recruited at nine centers in North America.
By protocol, subjects were to have a complete surveillance colonoscopy 34-40 months after the qualifying examination. At each colonoscopy, the endoscopist recorded the estimated size and location of all polyps and mucosal lesions suspicious for neoplasia as per usual clinical practice. Each lesion was removed and examined histologically at the clinical center and by the study pathologist. Polyps were classified as neoplastic (adenomatous) or non-neoplastic (e.g., hyperplastic) by the study pathologist.
The primary study outcome was the proportion of subjects with one or more colorectal adenomas detected during the period from one year after randomization through the anticipated surveillance follow-up. If a surveillance colonoscopy was not performed during the protocol time window, the last examination at least one year after randomization was taken as the follow-up exam. Pre-specified secondary outcomes were the numbers of large-bowel adenomas and “advanced lesions”: tubulovillous adenomas (25 to 75 percent villous features), villous adenomas (>75 percent villous), large adenomas ([…]), severe dysplasia, or invasive cancer. Separate analyses were also conducted for lesions in the left colorectum (descending colon, sigmoid colon, and rectum) and right colorectum (the remainder of the bowel).

[2] = Advanced Lesion, both aspirin groups combined
[3] = Any Adenoma, both aspirin groups combined
[4] = Tubular Adenoma, both aspirin groups combined

For CC(=O)Oc1ccccc1C(=O)O [Aspirin, acetylsalicylic acid], the “Died, percent” value ([1]; 81 mg Aspirin, N = 377 (Table 2)) was 0.8%, the “Coronary Revascularization, no of subjects” value ([1]; 81 mg aspirin (N = 377)) was 3 and the “Deaths, no of subjects” value ([1]; 81 mg aspirin (N = 377)) was 3. For the same molecule, the “Hospitalization, no of subjects” value ([1]; 81 mg aspirin (N = 377)) was 61, the “Myocardial Infarction, no of subjects” value ([1]; 81 mg aspirin (N = 377)) was 2 and the “Non-Colorectal Cancer, no of subjects” value ([1]; 81 mg aspirin (N = 377)) was 14. The “Stroke, no of subjects” value ([1]; 81 mg aspirin (N = 377)) was 2, the “Serious Bleeding, Gastrointestinal, no of subjects” value ([1]; 81 mg aspirin (N = 377)) was 2 and the “Serious Bleeding, Genitourinary, no of subjects” value ([1]; 81 mg aspirin (N = 377)) was 6. For the same molecule, the “stroke judged to be hemorrhagic” value ([1]; 81 mg aspirin group, after review of the medical records) was “One”, the “Died, percent” value ([1]; 325 mg Aspirin, N = 372 (Table 2)) was 1.1% and the “Coronary Revascularization, no of subjects” value ([1]; 325 mg aspirin (N = 372)) was 5. The “Deaths, no of subjects” value ([1]; 325 mg aspirin (N = 372)) was 4, the “Hospitalization, no of subjects” value ([1]; 325 mg aspirin (N = 372)) was 57 and the “Myocardial Infarction, no of subjects” value ([1]; 325 mg aspirin (N = 372)) was 4. The “Non-Colorectal Cancer, no of subjects” value ([1]; 325 mg aspirin (N = 372)) was 9, the “Stroke, no of subjects” value ([1]; 325 mg aspirin (N = 372)) was 5 and the “Serious Bleeding, Gastrointestinal, no of subjects” value ([1]; 325 mg aspirin (N = 372)) was 4. For the same molecule, the “Serious Bleeding, Genitourinary, no of subjects” value ([1]; 325 mg aspirin (N = 372)) was 2, the “Hospitalization, cancer and myocardial infarction frequency” value ([1]; aspirin groups versus placebo, differences compatible with chance) was “somewhat more frequently in the aspirin groups than in placebo” and the “patients diagnosed with a stroke (all non-fatal)” value ([1]; both aspirin groups together, none in placebo) was “Seven”. For the same molecule, the “reduction in risk for advanced lesions” value (large bowel adenomas; 81 mg aspirin) was > 40%, the “reduction in risk of one or more adenomas” value (large bowel adenomas; 81 mg aspirin) was 19% and the “adjusted risk ratio for the detection of at least one advanced adenoma” value (large bowel adenomas; 81 mg aspirin, among women) was 0.18. For the same molecule, the “adjusted risk ratio for the detection of at least one advanced adenoma” value (large bowel adenomas; 81 mg aspirin, among younger subjects (younger than median age 57 years at randomization)) was 0.37, the “reduction in risk of one or more adenomas” value (large bowel adenomas; 325 mg aspirin, non-significant) was 4% and the “N with adenoma/N followed” value (large bowel adenomas; Advanced Lesion, 81 mg/day) was 28/366. For the same molecule, the “N with adenoma/N followed (percent)” value (large bowel adenomas; Advanced Lesion, 81 mg/day) was “(7.7%)”, the “Relative Crude Risk (95% CI)” value (large bowel adenomas; Advanced Lesion, 81 mg/day) was 0.59 and the “Adjusted Relative Risk (95% CI)” value (large bowel adenomas; Advanced Lesion, 81 mg/day, adjusted) was 0.58. The “N with adenoma/N followed” value (large bowel adenomas; Advanced Lesion, 325 mg/day) was 38/355, the “N with adenoma/N followed (percent)” value (large bowel adenomas; Advanced Lesion, 325 mg/day) was “(10.7%)” and the “Relative Crude Risk (95% CI)” value (large bowel adenomas; Advanced Lesion, 325 mg/day) was 0.83. For the same molecule, the “Adjusted Relative Risk (95% CI)” value (large bowel adenomas; Advanced Lesion, 325 mg/day, adjusted) was 0.83, the “N with adenoma/N followed” value (large bowel adenomas; [2]) was 66/721 and the “N with adenoma/N followed (percent)” value (large bowel adenomas; [2]) was “(9.2%)”. The “Relative Crude Risk (95% CI)” value (large bowel adenomas; [2]) was 0.71, the “Adjusted Relative Risk (95% CI)” value (large bowel adenomas; Advanced Lesion, both aspirin groups combined, adjusted) was 0.70 and the “N with adenoma/N followed” value (large bowel adenomas; Any Adenoma, 81 mg/day) was 140/366. For the same molecule, the “N with adenoma/N followed (percent)” value (large bowel adenomas; Any Adenoma, 81 mg/day) was “(38.3%)”, the “N with adenoma/N followed (percent)” value (large bowel adenomas; Any Adenoma, 81 mg/day, listed as aspirin) was 38.3% and the “Relative Crude Risk (95% CI)” value (large bowel adenomas; Any Adenoma, 81 mg/day) was 0.81. For the same molecule, the “Adjusted Relative Risk (95% CI)” value (large bowel adenomas; Any Adenoma, 81 mg/day, adjusted) was 0.83, the “N with adenoma/N followed” value (large bowel adenomas; Any Adenoma, 325 mg/day) was 160/355 and the “N with adenoma/N followed (percent)” value (large bowel adenomas; Any Adenoma, 325 mg/day) was “(45.1%)”. For the same molecule, the “N with adenoma/N followed (percent)” value (large bowel adenomas; Any Adenoma, 325 mg/day, listed as aspirin) was 45.1%, the “Relative Crude Risk (95% CI)” value (large bowel adenomas; Any Adenoma, 325 mg/day) was 0.96 and the “Adjusted Relative Risk (95% CI)” value (large bowel adenomas; Any Adenoma, 325 mg/day, adjusted) was 0.95. The “N with adenoma/N followed (percent)” value (large bowel adenomas; [3]) was “(41.6%)”, the “N with adenoma/N followed” value (large bowel adenomas; Any Adenoma, both aspirin groups combined (81 and 325 mg/day)) was 300/721 and the “Relative Crude Risk (95% CI)” value (large bowel adenomas; [3]) was 0.88. For the same molecule, the “Adjusted Relative Risk (95% CI)” value (large bowel adenomas; Any Adenoma, both aspirin groups combined, adjusted for age, sex, clinical center, length of follow-up, baseline number of lifetime adenoma) was 0.89, the “N with adenoma/N followed” value (large bowel adenomas; Tubular Adenoma, 81 mg/day) was 121/366 and the “N with adenoma/N followed (percent)” value (large bowel adenomas; Tubular Adenoma, 81 mg/day) was “(33.1%)”. For the same molecule, the “Relative Crude Risk (95% CI)” value (large bowel adenomas; Tubular Adenoma, 81 mg/day) was 0.84, the “Adjusted Relative Risk (95% CI)” value (large bowel adenomas; Tubular Adenoma, 81 mg/day, adjusted) was 0.87 and the “N with adenoma/N followed” value (large bowel adenomas; Tubular Adenoma, 325 mg/day) was 141/355. The “N with adenoma/N followed (percent)” value (large bowel adenomas; Tubular Adenoma, 325 mg/day) was “(39.7%)”, the “Relative Crude Risk (95% CI)” value (large bowel adenomas; Tubular Adenoma, 325 mg/day) was 1.01 and the “Adjusted Relative Risk (95% CI)” value (large bowel adenomas; Tubular Adenoma, 325 mg/day, adjusted) was 1.00. The “N with adenoma/N followed” value (large bowel adenomas; [4]) was 262/721, the “N with adenoma/N followed (percent)” value (large bowel adenomas; [4]) was “(36.3%)” and the “Relative Crude Risk (95% CI)” value (large bowel adenomas; [4]) was 0.92. The “Adjusted Relative Risk (95% CI)” value (large bowel adenomas; Tubular Adenoma, both aspirin groups combined, adjusted) was 0.93, the “reduction in risk of one or more adenomas” value (large bowel adenomas; both aspirin groups combined, non-significant) was 12% and the incidence of adenomas (large bowel adenomas; patients randomized to the aspirin groups) was “significantly lower”.
